Where a SMILES comes first, the peptide text is derived from it. The star is where a group is joined. Cbz = O=C(OCc1ccccc1)*

The test relates to HIF-1α. In words: Western blot of HIF-1α expression in HCT116 cells. The class given is cell-based. The note with it: for HIF-1α expression / HIF-1α expression increased by Smurf2 knockdown, effect of treatment: HCT116 cells; for HIF-1α expression: normoxia; for HIF-1α expression increased by Smurf2 knockdown, effect of treatment: Smurf2 siRNA 48 hours, normoxia 6 hours, Ro3306 5 μM, palbociclib 10 μM, abemaciclib 1 μM. The method, then: HCT116 cells were obtained from American Type Culture Collection (ATCC) and were maintained according to ATCC recommendation in McCoy's 5A medium (Hyclone) with 10% fetal bovine serum (FBS) (Hyclone) and 1% penicillin/streptomycin (P/S) (Corning). Cells were regularly tested for mycoplasma and authenticated. Cells were maintained at 37° C. in 5% CO2. Hypoxia treatment was performed in a hypoxia chamber (In vivo2, Ruskinn) which maintains 0.5% O2 and 5% CO2 at 37° C.
Plasmid expression was performed by 24 hours transfection using Opti-MEM (Thermo Fisher Scientific) and Lipofectamine 2000 (Life Technologies). Knockdown experiments were performed by siRNA transfection for 48 hours with Opti-MEM and Lipofectamine RNAiMAX (Life Technologies), according to the manufacturer's protocol.
Treated cells were lysed in RIPA buffer (Sigma). Protein concentrations were determined using a BCA Protein Assay Kit (Life Technologies). Equal amounts of total protein were boiled with NuPAGE™ LDS sample buffer (Thermo Fisher Scientific) and reducing agent (Invitrogen) or 2-mercaptoethanol. Samples were analyzed with SDS-PAGE. Proteins were transferred to an Immobilon-P PVDF membrane (EMD Millipore). Primary and secondary antibodies were added in order. Signals were detected after addition of the ECL western blotting substrate (Thermo Fisher Scientific).

As to `CC(C)C[C@@H](C=O)NC(=O)[C@H](CC(C)C)NC(=O)[C@H](CC(C)C)NC(=O)OCc1ccccc1` [MG132] (Cbz-Leu-Leu-Leu-aldehyde), the “HIF-1α expression upon Smurf2 overexpression” value (HCT116 cells transfected with myc-Smurf2 plasmid, 6 hours, dose-dependent) is reported as “partially rescued”. The HIF-1α expression result is given as “increased” (2 μM, 6 hours) and “more robustly” (5 μM, 6 hours).
`O=C1NC(=NCc2cccs2)S/C1=C\c1ccc2ncccc2c1` [Ro-3306]: the “HIF-1α expression increased by Smurf2 knockdown, effect of treatment” value is “not reversed”. For the same molecule, the “HIF-1α expression increased by Smurf2 knockdown, effect of treatment” value (listed as Ro3306) is given as “further increased”.

Source of the values: patent US20230183356A1, “HIF-1a MODULATORS AND USES THEREOF” (Brown University, priority 2021, published 2023).
